In ChEMBL document CHEMBL6114972, “Proteolysis targeting chimera of BI-2536 induces potent dual degradation of PLK1 and BET proteins” (Bioorg Med Chem, 2025):
Activity calls are given as the source filed them. The rule behind the calls is not given here.

What was measured:
[1] = biological target: T1, Protein cereblon/Serine/threonine-protein kinase PLK1 (Homo sapiens, UniProt P53350+Q96SW2); test: Protac activity at CRBN/PLK1 in human HeLa cells assessed as PLK1 degradation at 10 to 500 nM measured after 36 hrs by Western blot analysis; type: cell-based; details: dose 10-500 nM
Target sequence in this assay (P53350 2-603 limits assumed): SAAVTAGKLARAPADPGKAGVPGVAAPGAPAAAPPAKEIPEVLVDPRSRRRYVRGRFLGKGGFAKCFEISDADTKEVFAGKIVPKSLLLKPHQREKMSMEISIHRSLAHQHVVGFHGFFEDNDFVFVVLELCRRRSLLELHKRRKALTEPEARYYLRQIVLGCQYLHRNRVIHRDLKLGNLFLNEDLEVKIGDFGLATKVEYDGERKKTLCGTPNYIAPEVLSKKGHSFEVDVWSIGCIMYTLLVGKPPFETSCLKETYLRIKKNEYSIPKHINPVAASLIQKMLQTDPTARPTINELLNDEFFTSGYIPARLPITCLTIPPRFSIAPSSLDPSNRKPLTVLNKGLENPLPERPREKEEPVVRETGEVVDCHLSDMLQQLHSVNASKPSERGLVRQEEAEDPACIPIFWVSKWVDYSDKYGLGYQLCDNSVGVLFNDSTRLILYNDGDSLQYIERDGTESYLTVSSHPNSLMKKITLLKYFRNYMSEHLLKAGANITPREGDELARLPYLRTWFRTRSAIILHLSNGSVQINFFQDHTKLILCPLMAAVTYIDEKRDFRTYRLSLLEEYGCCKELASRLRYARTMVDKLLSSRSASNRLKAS
Target sequence in this assay (Q96SW2 whole entry partner): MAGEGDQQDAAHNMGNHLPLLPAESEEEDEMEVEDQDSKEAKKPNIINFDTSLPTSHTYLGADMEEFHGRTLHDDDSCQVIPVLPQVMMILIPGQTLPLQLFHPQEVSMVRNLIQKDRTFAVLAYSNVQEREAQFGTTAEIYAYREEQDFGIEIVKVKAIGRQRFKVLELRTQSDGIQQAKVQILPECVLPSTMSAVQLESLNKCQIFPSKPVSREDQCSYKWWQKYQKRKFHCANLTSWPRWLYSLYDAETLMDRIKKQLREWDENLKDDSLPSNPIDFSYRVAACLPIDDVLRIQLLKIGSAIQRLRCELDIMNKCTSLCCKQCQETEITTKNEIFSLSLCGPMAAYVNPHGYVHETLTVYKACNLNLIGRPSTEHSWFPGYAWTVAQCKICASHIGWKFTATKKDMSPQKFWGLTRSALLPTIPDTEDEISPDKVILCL

[2] = tested on: CWR22R; test: Antiproliferative activity against human 22Rv1 cells assessed as reduction in cell viability up to 100000 nM incubated for 24 hrs prior to compound washout measured after 1 week by crystal violet staining based assay; type: functional
[3] = biological target: T1, Protein cereblon/Serine/threonine-protein kinase PLK1; test: Protac activity at CRBN/PLK1 in human 22Rv1 cells assessed as PLK1 degradation at 50 nM measured after 24 hrs by Western blot analysis; type: cell-based
Target sequence in this assay (P53350 2-603 limits assumed): as the sequence (P53350 2-603 limits assumed) above
Target sequence in this assay (Q96SW2 whole entry partner): as the sequence (Q96SW2 whole entry partner) above

[4] = biological target: T1, Protein cereblon/Serine/threonine-protein kinase PLK1; test: Protac activity at CRBN/PLK1 in human HeLa cells assessed as PLK1 degradation at 10 nM measured after 36 hrs by Western blot analysis; type: cell-based
Target sequence in this assay (P53350 2-603 limits assumed): as the sequence (P53350 2-603 limits assumed) above
Target sequence in this assay (Q96SW2 whole entry partner): as the sequence (Q96SW2 whole entry partner) above

[5] = biological target: T2, Protein cereblon/Bromodomain-containing protein 4 (Homo sapiens, UniProt O60885+Q96SW2); test: Protac activity at CRBN/BRD4 in human 22Rv1 cells assessed as BRD4 degradation at 50 nM measured after 2 hrs by Western blot analysis; type: cell-based
T2 sequence (Q96SW2 whole entry, looked up, other chains not shown): as the sequence (Q96SW2 whole entry partner) above

[6] = biological target: T2, Protein cereblon/Bromodomain-containing protein 4; test: Protac activity at CRBN/BRD4 in human 22Rv1 cells assessed as BRD4 degradation at 50 nM measured after 4 hrs by Western blot analysis; type: cell-based
[7] = biological target: T1, Protein cereblon/Serine/threonine-protein kinase PLK1; test: Protac activity at CRBN/PLK1 in human 22Rv1 cells assessed as PLK1 degradation at 10 to 500 nM measured after 36 hrs by Western blot analysis; type: cell-based; details: dose 10-500 nM
Target sequence in this assay (P53350 2-603 limits assumed): as the sequence (P53350 2-603 limits assumed) above
Target sequence in this assay (Q96SW2 whole entry partner): as the sequence (Q96SW2 whole entry partner) above

[8] = biological target: T1, Protein cereblon/Serine/threonine-protein kinase PLK1; test: Protac activity at CRBN/PLK1 in human 22Rv1 cells assessed as PLK1 degradation at 2 uM measured after 12 to 24 hrs by Western blot analysis; type: cell-based; details: time 12-24 hrs
Target sequence in this assay (P53350 2-603 limits assumed): as the sequence (P53350 2-603 limits assumed) above
Target sequence in this assay (Q96SW2 whole entry partner): as the sequence (Q96SW2 whole entry partner) above

[9] = tested on: K562; test: Cytotoxicity against human K562 cells assessed as reduction in cell viability measured after 3 days by CCK-8 assay; type: functional, cell-based; details: K562, 72 h
[10] = biological target: T3, Protein cereblon/Bromodomain-containing protein 2 (Homo sapiens, UniProt P25440+Q96SW2); test: Protac activity at CRBN/BRD2 in human 22Rv1 cells assessed as BRD2 degradation measured after 36 hrs by Western blot analysis relative to control; type: cell-based
Target sequence in this assay (P25440 whole entry, looked up): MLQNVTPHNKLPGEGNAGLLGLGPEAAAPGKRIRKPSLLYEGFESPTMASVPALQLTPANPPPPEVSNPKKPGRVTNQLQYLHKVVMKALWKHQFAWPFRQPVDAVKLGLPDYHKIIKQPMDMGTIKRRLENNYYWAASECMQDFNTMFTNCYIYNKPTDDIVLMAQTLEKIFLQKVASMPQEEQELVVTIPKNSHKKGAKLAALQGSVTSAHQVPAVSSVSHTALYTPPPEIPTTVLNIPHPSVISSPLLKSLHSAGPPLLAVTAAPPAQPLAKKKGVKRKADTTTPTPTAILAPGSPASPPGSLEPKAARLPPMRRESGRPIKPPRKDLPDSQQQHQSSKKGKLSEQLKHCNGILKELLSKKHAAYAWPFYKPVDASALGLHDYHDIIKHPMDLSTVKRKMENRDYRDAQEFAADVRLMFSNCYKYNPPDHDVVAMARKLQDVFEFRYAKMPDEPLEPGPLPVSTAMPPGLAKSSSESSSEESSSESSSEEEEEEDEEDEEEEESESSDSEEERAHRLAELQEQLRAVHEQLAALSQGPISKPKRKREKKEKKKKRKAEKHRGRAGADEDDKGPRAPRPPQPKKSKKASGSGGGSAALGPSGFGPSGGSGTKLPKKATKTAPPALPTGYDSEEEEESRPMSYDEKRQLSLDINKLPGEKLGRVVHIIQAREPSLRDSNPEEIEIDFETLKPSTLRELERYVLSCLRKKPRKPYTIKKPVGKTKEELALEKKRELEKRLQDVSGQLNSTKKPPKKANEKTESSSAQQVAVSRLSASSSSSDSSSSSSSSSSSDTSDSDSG
Target sequence in this assay (Q96SW2 whole entry, looked up): as the sequence (Q96SW2 whole entry partner) above

[11] = tested on: HeLa; test: Cytotoxicity against human HeLa cells assessed as reduction in cell viability measured after 3 days by CCK-8 assay; type: functional, cell-based; details: 72 h
[12] = biological target: T4, Protein cereblon/Bromodomain-containing protein 3 (Homo sapiens, UniProt Q15059+Q96SW2); test: Protac activity at CRBN/BRD3 in human 22Rv1 cells assessed as BRD3 degradation measured after 36 hrs by Western blot analysis; type: cell-based
[13] = biological target: T1, Protein cereblon/Serine/threonine-protein kinase PLK1; test: Protac activity at CRBN/PLK1 in human K562 cells assessed as PLK1 degradation at 10 nM measured after 36 hrs by Western blot analysis; type: cell-based
Target sequence in this assay (P53350 2-603 limits assumed): as the sequence (P53350 2-603 limits assumed) above
Target sequence in this assay (Q96SW2 whole entry partner): as the sequence (Q96SW2 whole entry partner) above

[14] = biological target: T3, Protein cereblon/Bromodomain-containing protein 2; test: Protac activity at CRBN/BRD2 in human 22Rv1 cells assessed as BRD2 degradation measured after 36 hrs by Western blot analysis; type: cell-based
[15] = biological target: T2, Protein cereblon/Bromodomain-containing protein 4; test: Protac activity at CRBN/BRD4 in human HeLa cells assessed as BRD4 degradation at 20 nM measured after 24 hrs by Western blot analysis; type: cell-based
[16] = biological target: T4, Protein cereblon/Bromodomain-containing protein 3; test: Protac activity at CRBN/BRD3 in human 22Rv1 cells assessed as BRD3 degradation measured after 36 hrs by Western blot analysis relative to control; type: cell-based
Target sequence in this assay (Q15059 2-726 limits assumed): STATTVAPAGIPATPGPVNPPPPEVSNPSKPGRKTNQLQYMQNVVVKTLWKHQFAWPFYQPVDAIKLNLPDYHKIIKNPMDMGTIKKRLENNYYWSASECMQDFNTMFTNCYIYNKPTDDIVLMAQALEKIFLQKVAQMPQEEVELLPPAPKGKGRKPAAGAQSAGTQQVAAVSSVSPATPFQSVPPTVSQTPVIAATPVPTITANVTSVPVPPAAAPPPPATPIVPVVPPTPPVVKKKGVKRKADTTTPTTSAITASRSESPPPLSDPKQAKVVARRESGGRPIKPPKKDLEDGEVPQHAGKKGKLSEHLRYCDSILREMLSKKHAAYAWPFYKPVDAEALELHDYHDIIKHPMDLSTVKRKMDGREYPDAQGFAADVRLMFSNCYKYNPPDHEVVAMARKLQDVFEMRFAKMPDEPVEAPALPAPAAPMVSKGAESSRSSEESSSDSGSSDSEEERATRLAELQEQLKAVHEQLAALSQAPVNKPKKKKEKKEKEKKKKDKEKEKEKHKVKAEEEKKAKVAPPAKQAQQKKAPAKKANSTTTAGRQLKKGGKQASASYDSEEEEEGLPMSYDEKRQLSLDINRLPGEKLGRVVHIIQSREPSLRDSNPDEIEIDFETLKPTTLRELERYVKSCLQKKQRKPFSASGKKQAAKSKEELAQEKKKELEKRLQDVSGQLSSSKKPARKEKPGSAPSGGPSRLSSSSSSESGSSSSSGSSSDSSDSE
Target sequence in this assay (Q96SW2 whole entry partner): as the sequence (Q96SW2 whole entry partner) above

[17] = biological target: T2, Protein cereblon/Bromodomain-containing protein 4; test: Protac activity at CRBN/BRD4 in human 22Rv1 cells assessed as BRD4 degradation measured after 36 hrs by Western blot analysis; type: cell-based
[18] = biological target: T2, Protein cereblon/Bromodomain-containing protein 4; test: Protac activity at CRBN/BRD4 in human HeLa cells assessed as BRD4 degradation at 3 nM measured after 36 hrs by Western blot analysis; type: cell-based
[19] = biological target: T1, Protein cereblon/Serine/threonine-protein kinase PLK1; test: Protac activity at CRBN/PLK1 in human HeLa cells assessed as PLK1 degradation measured after 36 hrs by Western blot analysis relative to control; type: cell-based
[20] = tested on: CWR22R; test: Down regulation of PRDM1 mRNA expression in human 22Rv1 cells at 20 to 100 nM measured after 36 hrs by RT-qPCR analysis; type: functional, cell-based; details: dose 20-100 nM
[21] = biological target: T4, Protein cereblon/Bromodomain-containing protein 3; test: Protac activity at CRBN/BRD3 in human HeLa cells assessed as BRD3 degradation at 3 nM measured after 36 hrs by Western blot analysis; type: cell-based
Target sequence in this assay (Q15059 2-726 limits assumed): as the sequence (Q15059 2-726 limits assumed) above
Target sequence in this assay (Q96SW2 whole entry partner): as the sequence (Q96SW2 whole entry partner) above

[22] = biological target: T2, Protein cereblon/Bromodomain-containing protein 4; test: Protac activity at CRBN/BRD4 in human 22Rv1 cells assessed as down regulation of MYC gene expression at 20 to 100 nM measured after 36 hrs by RT-qPCR analysis; type: cell-based; details: dose 20-100 nM
[23] = tested on: CWR22R; test: Down regulation of Bcl-2 mRNA expression in human 22Rv1 cells at 20 to 100 nM measured after 36 hrs by RT-qPCR analysis; type: functional, cell-based; details: dose 20-100 nM
[24] = biological target: T3, Protein cereblon/Bromodomain-containing protein 2; test: Protac activity at CRBN/BRD2 in human HeLa cells assessed as BRD2 degradation measured after 36 hrs by Western blot analysis relative to control; type: cell-based
Target sequence in this assay (P25440 whole entry, looked up): as the sequence (P25440 whole entry, looked up) above
Target sequence in this assay (Q96SW2 whole entry, looked up): as the sequence (Q96SW2 whole entry partner) above

[25] = biological target: T4, Protein cereblon/Bromodomain-containing protein 3; test: Protac activity at CRBN/BRD3 in human HeLa cells assessed as BRD3 degradation measured after 36 hrs by Western blot analysis relative to control; type: cell-based
Target sequence in this assay (Q15059 2-726 limits assumed): as the sequence (Q15059 2-726 limits assumed) above
Target sequence in this assay (Q96SW2 whole entry partner): as the sequence (Q96SW2 whole entry partner) above

[26] = biological target: T2, Protein cereblon/Bromodomain-containing protein 4; test: Protac activity at CRBN/BRD4 in human K562 cells assessed as BRD4 degradation at 10 nM measured after 36 hrs by Western blot analysis; type: cell-based
[27] = biological target: T3, Protein cereblon/Bromodomain-containing protein 2; test: Protac activity at CRBN/BRD2 in human HeLa cells assessed as BRD2 degradation measured after 36 hrs by Western blot analysis; type: cell-based
[28] = tested on: CWR22R; test: Down regulation of XIAP mRNA expression in human 22Rv1 cells at 20 to 100 nM measured after 36 hrs by RT-qPCR analysis; type: functional, cell-based; details: dose 20-100 nM
[29] = tested on: CWR22R; test: Cytotoxicity against human 22Rv1 cells assessed as reduction in cell viability measured after 3 days by CCK-8 assay; type: functional, cell-based; details: 22Rv1, 72 h
[30] = biological target: T1, Protein cereblon/Serine/threonine-protein kinase PLK1; test: Protac activity at CRBN/PLK1 in human HeLa cells assessed as PLK1 degradation measured after 36 hrs by Western blot analysis; type: cell-based
[31] = biological target: T1, Protein cereblon/Serine/threonine-protein kinase PLK1; test: Protac activity at CRBN/PLK1 in human HeLa cells assessed as PLK1 degradation at 200 nM measured after 24 hrs by Western blot analysis; type: cell-based
[32] = biological target: T2, Protein cereblon/Bromodomain-containing protein 4; test: Protac activity at CRBN/BRD4 in human HeLa cells assessed as BRD4 degradation at 10 nM measured after 36 hrs by Western blot analysis; type: cell-based
[33] = biological target: T1, Protein cereblon/Serine/threonine-protein kinase PLK1; test: Protac activity at CRBN/PLK1 in human MDA-MB-231 cells assessed as PLK1 degradation at 10 nM measured after 36 hrs by Western blot analysis; type: cell-based
[34] = biological target: T2, Protein cereblon/Bromodomain-containing protein 4; test: Protac activity at CRBN/BRD4 in human HeLa cells assessed as BRD4 degradation at 500 nM measured after 12 hrs by Western blot analysis; type: cell-based
[35] = biological target: T4, Protein cereblon/Bromodomain-containing protein 3; test: Protac activity at CRBN/BRD3 in human HeLa cells assessed as BRD3 degradation measured after 36 hrs by Western blot analysis; type: cell-based
[36] = biological target: T2, Protein cereblon/Bromodomain-containing protein 4; test: Protac activity at CRBN/BRD4 in human 22Rv1 cells assessed as BRD4 degradation measured after 36 hrs by Western blot analysis relative to control; type: cell-based
[37] = biological target: T1, Protein cereblon/Serine/threonine-protein kinase PLK1; test: Protac activity at CRBN/PLK1 in human 22Rv1 cells assessed as PLK1 degradation measured after 36 hrs by Western blot analysis relative to control; type: cell-based
[38] = biological target: T2, Protein cereblon/Bromodomain-containing protein 4; test: Protac activity at CRBN/BRD4 in human HeLa cells assessed as BRD4 degradation measured after 36 hrs by Western blot analysis relative to control; type: cell-based
[39] = biological target: T2, Protein cereblon/Bromodomain-containing protein 4; test: Protac activity at CRBN/BRD4 in human HeLa cells assessed as BRD4 degradation measured after 36 hrs by Western blot analysis; type: cell-based
[40] = biological target: T1, Protein cereblon/Serine/threonine-protein kinase PLK1; test: Protac activity at CRBN/PLK1 in human HeLa cells assessed as PLK1 degradation at 500 nM measured after 12 hrs by Western blot analysis; type: cell-based
[41] = biological target: T3, Protein cereblon/Bromodomain-containing protein 2; test: Protac activity at CRBN/BRD2 in human HeLa cells assessed as BRD2 degradation at 3 nM measured after 36 hrs by Western blot analysis; type: cell-based
Target sequence in this assay (P25440 whole entry, looked up): as the sequence (P25440 whole entry, looked up) above
Target sequence in this assay (Q96SW2 whole entry, looked up): as the sequence (Q96SW2 whole entry partner) above

[42] = tested on: CWR22R; test: Effect on P21 mRNA expression in human 22Rv1 cells at 20 to 100 nM measured after 36 hrs by RT-qPCR analysis; type: functional, cell-based; details: dose 20-100 nM
[43] = biological target: T1, Protein cereblon/Serine/threonine-protein kinase PLK1; test: Protac activity at CRBN/PLK1 in human 22Rv1 cells assessed as PLK1 degradation measured after 36 hrs by Western blot analysis; type: cell-based
[44] = biological target: T1, Protein cereblon/Serine/threonine-protein kinase PLK1; test: Protac activity at CRBN/PLK1 in human 22Rv1 cells assessed as PLK1 degradation at 50 nM measured after 36 hrs by Western blot analysis; type: cell-based
[45] = biological target: T1, Protein cereblon/Serine/threonine-protein kinase PLK1; test: Protac activity at CRBN/PLK1 in human HeLa cells assessed as PLK1 degradation at 500 nM measured after 36 hrs by Western blot analysis; type: cell-based
[46] = biological target: T2, Protein cereblon/Bromodomain-containing protein 4; test: Protac activity at CRBN/BRD4 in human MDA-MB-231 cells assessed as BRD4 degradation at 10 nM measured after 36 hrs by Western blot analysis; type: cell-based
[47] = tested on: MDA-MB-231; test: Cytotoxicity against human MDA-MB-231 cells assessed as reduction in cell viability measured after 3 days by CCK-8 assay; type: functional, cell-based; details: MDA-MB-231, 72 h

CC[C@@H]1C(=O)N(C)c2cnc(Nc3ccc(C(=O)NC4CCN(CCCCCCCC(=O)Nc5cccc6c5C(=O)N(C5CCC(=O)NC5=O)C6=O)CC4)cc3OC)nc2N1C1CCCC1 (some centres not stated)
Activity [1]: Active; Higher Degradation Observed At 36 Hrs | Activity [2]: Active; Antiproliferative Effect Was Enhanced Even After 1 Week | Activity [3]: Not active; No Significant Effect Observed | Activity [4]: Active | Activity [5]: Active; Effectively Reduced The Protein Level | Activity [6]: Active; Near-Complete Depletion Of Brd4 Observed | Activity [7]: Active; Higher Degradation Observed At 36 Hrs | Activity [8]: Active | IC50 [9]: 52 nM | Activity [10]: 91.5% | IC50 [11]: 44 nM | DC50 [12]: 9.45 nM | Activity [13]: Active | DC50 [14]: 1.63 nM | Activity [15]: Active; Demonstrated Most Potent Efficacy | Activity [16]: 89.9% | DC50 [17]: 1.56 nM | Activity [18]: Active | Activity [19]: 78.6% | Activity [20]: Active | Activity [21]: Active | Activity [22]: Active; Nearly Complete Down Regulation Observed At 20 Nm | Activity [23]: Active | Activity [24]: 82.8% | Activity [25]: 93.3% | Activity [26]: Active | DC50 [27]: 6.45 nM | Activity [28]: Active | IC50 [29]: 45 nM | DC50 [30]: 1.64 nM | Activity [31]: Active; Moderate Effect Observed | Activity [32]: Active | Activity [33]: Active | Activity [34]: 95% | DC50 [35]: 1.74 nM | Activity [36]: 96.5% | Activity [37]: 78% | Activity [38]: 93.4% | DC50 [39]: 1.03 nM | Activity [40]: 28% | Activity [41]: Active | Activity [42]: inactive | DC50 [43]: 4.68 nM | Activity [44]: Active; Profound Degradation Observed | Activity [45]: 92% | Activity [46]: Active | IC50 [47]: 274 nM
